From patent US7687507B2, “Pyrrolo[2,3-d]pyrimidine compounds” (Pfizer Inc., priority 1998, dated 2010)

`CCN(Cc1ccccc1)c1ncnc2[nH]ccc12` [Example 2, Benzyl-ethyl-(7H-pyrrolo[2,3-d]pyrimidin-4-yl)-amine] showed a melting point of 170 to 172 °C.
`C=CCN(c1ncnc2[nH]ccc12)C1CCCC1` [Example 6, Allyl-cyclopentyl-(7H-pyrrolo[2,3-d]pyrimidin-4-yl)-amine] showed a melting point of 173 to 175 °C.
With `CCN(c1ncnc2[nH]ccc12)C1CCCCCC1` [Example 14, Cycloheptyl-ethyl-(7H-pyrrolo[2,3-d]pyrimidin-4-yl)-amine] the melting point was 168 to 169 °C.
Compound `CCN(c1ncnc2[nH]ccc12)C1CCCCCCC1` [Example 15, Cyclooctyl-ethyl-(7H-pyrrolo[2,3-d]pyrimidin-4-yl)-amine] has a melting point of 155 to 156 °C.
With `CCC(C)N(C)c1ncnc2[nH]ccc12` (centres unmarked) [Example 26, sec-Butyl-methyl-(7H-pyrrolo[2,3-d]pyrimidin-4-yl)-amine] the melting point was 146 to 148 °C.
In the case of `Cc1cc2c(N(C)C3CCCCC3)ncnc2[nH]1` [Example 87, Cyclohexyl-methyl-(6-methyl-7H-pyrrolo[2,3-d]pyrimidin-4-yl)-amine], the melting point is reported as 221 °C (dec.).
`c1nc(SC2CCCCC2)c2cc[nH]c2n1` [Example 90, 4-Cyclohexylsulfanyl-7H-pyrrolo[2,3-d]pyrimidine] gave a melting point of 162 to 163 °C.
For `Clc1c[nH]c2ncnc(N3CCCCC3)c12` [Example 91, 5-Chloro-4-piperidin-1-yl-7H-pyrrolo[2,3-d]pyrimidine], the melting point was 170 to 172 °C.
Compound `CN(c1ncnc2[nH]cc(Cl)c12)C1CCCCCC1` [Example 93, (5-Chloro-7H-pyrrolo[2,3-d]pyrimidin-4-yl)-cycloheptyl-methyl-amine] has a melting point of 152 to 153 °C.
With `CN(c1ncnc2[nH]cc(Cl)c12)C1CCCCCCC1` [Example 94, (5-Chloro-7H-pyrrolo[2,3-d]pyrimidin-4-yl)-cyclooctyl-methyl-amine] the melting point was 151 to 153 °C.
Work on `CN(c1ncnc2[nH]cc(-c3ccccc3)c12)C1CCCCC1` [Example 96, Cyclohexyl-methyl-(5-phenyl-7H-pyrrolo[2,3-d]pyrimidin-4-yl)amine] yielded a melting point of 200 °C.
`CN(c1ncnc2[nH]cc(-c3ccc(F)cc3)c12)C1CCCCC1` [Example 97, Cyclohexyl-[5-(4-fluoro-Phenyl)-7H-pyrrolo[2,3-d]pyrimidin-4-yl]-methyl-amine] gave a melting point of 220 °C.
`N#Cc1c[nH]c2ncnc(N3CCCCC3)c12` [Example 100, 4-Piperidin-1-yl-7H-pyrrolo[2,3-d]pyrimidine-5-carbonitrile] gave a melting point of 209 to 211 °C.
For `C#Cc1c[nH]c2ncnc(N3CCCCC3)c12` [Example 101, 5-Ethynyl-4-piperidin-1-yl-7H-pyrrolo[2,3-d]pyrimidine], the melting point was 179 to 181 °C.
